The source of these data is ChEMBL document CHEMBL1145199, “Design, synthesis, and SAR of a novel pyrazinone series with non-nucleoside HIV-1 reverse transcriptase inhibitory activity” (J Med Chem, 2005).

Common to all, as to assay type: functional, organism-based
Experiment [1] has as its system Human immunodeficiency virus 1. Put plainly: Inhibitory concentration against 103N mutant was determined.
Experiment [2] deals with Human immunodeficiency virus 1. Put plainly: Inhibitory concentration against 188L mutant was determined.
The subject of experiment [3] is Human immunodeficiency virus 1. Put plainly: Inhibitory concentration against 100I mutant was determined.
Experiment [4] has as its system Human immunodeficiency virus 1. Put plainly: Inhibitory concentration against 181C mutant was determined.
Experiment [5] has as its system Human immunodeficiency virus 1. Put plainly: Inhibitory concentration against wild-type HIV-1 LAI Virus was determined.
In experiment [6] the test system is Human immunodeficiency virus 1. As to the kind of experiment: Inhibitory concentration against 100I and 103N mutant was determined.
Experiment [7] concerns Human immunodeficiency virus 1. Put plainly: Inhibitory concentration against 103N and 181C mutant was determined.
Experiment [8] concerns Human immunodeficiency virus 1. As to the kind of experiment: Inhibitory concentration against 188L mutant strain was determined.
The test system of experiment [9] is Human immunodeficiency virus 1. As to the kind of experiment: Inhibitory concentration against 103N and 181C mutant strains was determined.
The test system of experiment [10] is Human immunodeficiency virus 1. As to the kind of experiment: Inhibitory concentration against 100I and 103N mutant strains was determined.
Setting [11] is: Human immunodeficiency virus 1, read-out: IC50.

Regarding `Cc1ccccc1Oc1nc(Nc2ccc(C#N)cc2)c(=O)n(C)c1C`, the IC50 amounted to 398 nM in [1] (setting [11]); 2510 nM in [2] (setting [11]); 398 nM in experiment [3] (setting [11]); 2510 nM in experiment [4] (setting [11]); 5 nM in experiment [5] (setting [11]).
Consider `Cc1cc(C)c(Oc2nc(Nc3ccc(C#N)cc3)c(=O)n(C)c2C)c(C)c1`, for which the IC50 in experiment [1] (setting [11]) is more than 158 nM; in experiment [2] (setting [11]), more than 200 nM; in [3] (setting [11]), more than 50 nM; in experiment [4] (setting [11]), more than 501 nM; in [5] (setting [11]) it was 5 nM.
On to `Cc1ccc(Oc2cn(Cc3ccccc3)c(=O)c(Nc3ccc(C#N)cc3)n2)c(C)c1`, for which the IC50 was 631 nM in experiment [1] (setting [11]); more than 10000 nM in experiment [2] (setting [11]); 631 nM in experiment [3] (setting [11]); 1580 nM in experiment [4] (setting [11]); 32 nM in experiment [5] (setting [11]).
For the compound `Cc1ccc(Sc2cn(C)c(=O)c(Nc3ccc(C#N)cc3)n2)c(C)c1`, the IC50 was more than 10000 nM in experiment [1] (setting [11]); more than 10000 nM in experiment [2] (setting [11]); more than 10000 nM in experiment [3] (setting [11]); more than 10000 nM in [4] (setting [11]); 5 nM in [5] (setting [11]).
For `Cc1ccc(Oc2cn(C)c(=O)c(Nc3ccc(C(F)(F)F)cc3)n2)c(C)c1`, the IC50 in experiment [5] (setting [11]) stood at 501 nM.
Regarding `Cc1ccccc1Sc1nc(Nc2ccc(C#N)cc2)c(=O)n(C)c1C`, the IC50 is more than 10000 nM in experiment [1] (setting [11]); more than 10000 nM in experiment [2] (setting [11]); more than 10000 nM in experiment [3] (setting [11]); more than 10000 nM in [4] (setting [11]); 40 nM in experiment [5] (setting [11]).
For `Cc1cc(C)c(S(=O)(=O)c2cn(C)c(=O)c(Nc3ccc(C#N)cc3)n2)c(C)c1`, the IC50 is more than 10000 nM in experiment [1] (setting [11]); more than 10000 nM in experiment [2] (setting [11]); more than 10000 nM in experiment [3] (setting [11]); 398 nM in experiment [4] (setting [11]); 8 nM in [5] (setting [11]).
`Cc1ccccc1Oc1nc(Nc2ccc(Cl)cc2)c(=O)n(C)c1C`: the IC50 in experiment [1] (setting [11]) was more than 10000 nM; in experiment [2] (setting [11]), more than 10000 nM; in experiment [3] (setting [11]), 5010 nM; in experiment [4] (setting [11]) it was more than 10000 nM; in [5] (setting [11]) it was 100 nM.
Regarding `Cc1ccccc1Oc1cn(C)c(=O)c(Nc2ccc(C#N)cc2)n1`, the IC50 was 794 nM in [1] (setting [11]); 2000 nM in [2] (setting [11]); 1260 nM in experiment [3] (setting [11]); 2510 nM in [4] (setting [11]); 4 nM in [5] (setting [11]).
With `Cc1ccc(Oc2nc(Nc3ccc(C#N)cc3)c(=O)n(C)c2C)c(C)c1`, the IC50 in experiment [6] was 158 nM; in experiment [1] (setting [11]), 32 nM; in experiment [2] (setting [11]) it was 158 nM; in [3] (setting [11]) it was 25 nM; in [4] (setting [11]) it was 63 nM; in experiment [5] (setting [11]), 3 nM. Moreover, the IC50 in experiment [7] turned out to be 1000 nM.
As for `Cc1ccccc1Sc1cn(C)c(=O)c(Nc2ccc(C#N)cc2)n1`, the IC50 in experiment [1] (setting [11]) was more than 10000 nM; in experiment [2] (setting [11]), more than 10000 nM; in experiment [3] (setting [11]), more than 10000 nM; in [4] (setting [11]), more than 10000 nM; in experiment [5] (setting [11]) it was 20 nM.
`Cc1cc(C)c(Sc2cn(C)c(=O)c(Nc3ccc(C#N)cc3)n2)c(C)c1`: the IC50 in experiment [1] (setting [11]) was 631 nM; in [2] (setting [11]), 631 nM; in experiment [3] (setting [11]), more than 10000 nM; in experiment [4] (setting [11]), 1000 nM; in experiment [5] (setting [11]), 16 nM.
`Cc1ccccc1Oc1cn(Cc2ccccc2)c(=O)c(Nc2ccc(C#N)cc2)n1`: the IC50 in experiment [5] (setting [11]) was found to be 316 nM.
On the same count and under the same terms, next, `Cc1ccc(Sc2nc(Nc3ccc(Cl)cc3)c(=O)n(C)c2C)c(C)c1`: 501 nM.
With `Cc1ccccc1Sc1nc(Nc2ccc(C#N)cc2)c(O)nc1C`, the IC50 in [1] (setting [11]) stood at 631 nM; in [2] (setting [11]) it was 631 nM; in [3] (setting [11]) it was 5010 nM; in [4] (setting [11]), 5010 nM; in experiment [5] (setting [11]) it was 40 nM.
For the compound `Cc1ccc(Oc2cn(C)c(=O)c(Nc3ccc(C#N)cc3)n2)c(C)c1`, the IC50 in experiment [1] (setting [11]) is 32 nM; in experiment [2] (setting [11]), 398 nM; in experiment [3] (setting [11]) it was 316 nM; in [4] (setting [11]) it was 159 nM; in [5] (setting [11]), less than 1 nM.
On to `Cc1cc(C#N)cc(C)c1Oc1nc(Nc2ccc(C#N)cc2)c(=O)n(C)c1C`, for which the IC50 in [6] is 158 nM; in experiment [4] (setting [11]), 25 nM; in experiment [5] (setting [11]) it was 6 nM; in experiment [7], 63 nM.
Take `Cc1ccc(Oc2nc(Nc3ccc(Cl)cc3)c(=O)n(C)c2C)c(C)c1`: the IC50 in [1] (setting [11]) was 3980 nM; in experiment [2] (setting [11]), more than 10000 nM; in experiment [3] (setting [11]), 3980 nM; in experiment [4] (setting [11]) it was more than 10000 nM; in [5] (setting [11]), 126 nM.
Turning to `Cc1ccc(Oc2cn(C)c(=O)c(Nc3ccccc3)n2)c(C)c1`, the IC50 in experiment [5] is 0.251 µmol.
Consider `Cc1ccc(Oc2cn(C)c(=O)c(Nc3ccc(Cl)cc3)n2)c(C)c1`, for which the IC50 in experiment [1] (setting [11]) was 5010 nM; in experiment [2] (setting [11]), more than 10000 nM; in experiment [3] (setting [11]) it was 5010 nM; in experiment [4] (setting [11]), 5010 nM; in experiment [5] (setting [11]) it was 25 nM.
`Cc1cc(C)c(S(=O)(=O)c2nc(Nc3ccc(C#N)cc3)c(=O)n(C)c2C)c(C)c1`: the IC50 is 158 nM in experiment [8]; 320 nM in experiment [1] (setting [11]); 25 nM in experiment [3] (setting [11]); 63 nM in experiment [4] (setting [11]); 3 nM in [5] (setting [11]).
With `O=C1Nc2ccc(Cl)cc2[C@@](C#CC2CC2)(C(F)(F)F)O1` [EFAVIRENZ], the IC50 was 40 nM in [1] (setting [11]); 40 nM in experiment [9]; 40 nM in experiment [3] (setting [11]); 2 nM in experiment [4] (setting [11]); more than 10 µM in [10].
Take `Cc1ccc(Oc2cn(C)c(=O)c(Nc3ccc(F)cc3)n2)c(C)c1`: the IC50 in [1] is more than 10 µmol; in experiment [2] it was more than 10 µmol; in experiment [3], more than 10 µmol; in experiment [4], more than 10 µmol; in experiment [5], 1.258 µmol.
In experiment [5], `Cc1ccc(Nc2nc(Oc3ccc(C)cc3C)cn(C)c2=O)cc1` gave an IC50 of more than 100 µmol.
On to `Cc1cc(C)c(Sc2cn(C)c(=O)c(Nc3ccc(Cl)cc3)n2)c(C)c1`, for which the IC50 in experiment [1] (setting [11]) was more than 10000 nM; in [2] (setting [11]), 10000 nM; in experiment [3] (setting [11]), more than 10000 nM; in experiment [4] (setting [11]), 6300 nM; in experiment [5] (setting [11]), 79 nM.
